# Columns and labels:
# [1] = tested on: MDA-MB-468 cells, persister genes; test: scRNA-seq expression changes induced by EZH2i-1 in the absence of chemotherapy; assay type: cell-based, human
# Experimental: Cell lines, culture conditions and drug treatments. MDA-MB-468 cells were cultured in DMEM (Gibco-BRL, Ref: 11966025), supplemented with 10% heat-inactivated fetal calf serum (Gibco-BRL, Ref: 10270-106). HCC38 and BT20 cell lines were cultured in RPMI 1640 (Gibco-BRL, Ref: 11875085), supplemented with 10% heat-inactivated fetal calf serum. […] Cells were treated with 5 μM of 5-FU (Sigma, Ref: F6627) alone or in combination with KDM6A/Bi or EZH2i for indicated days. For EZH2i, cells were pretreated with UNC 1999, UNC 2400 or GSK 126 for 10 days before the addition of 5-FU for an additional 21 days (FIG. 4 and Extended FIG. 8).
# Single-cell RNA-seq. For each single cell suspension (DMSO-DO- #1, 5-FU-D33- #1, 5-FU-D214- #1, 5-FU-D67- #2, 5-FU-D171- #2, 5-FU-D50- #3, 5-FU-D77- #3 and 5-FU-D202- #3) or PDX dissociated cells (PDX_95, PDX_39 or PDX_172, untreated and persister cells), approximately 3,000 cells were loaded on a Chromium Single Cell Controller Instrument (Chromium Single Cell 3′v3, 10× Genomics, Ref: PN-1000075) according to the manufacturer's instructions. Samples and libraries were prepared according to the manufacturer's instructions. Libraries were sequenced on a NovaSeq 6000 (Illumina) in PE 28-8-91 with a coverage of 50,000 reads/cell.
# Single-cell RNA-seq analysis. The scRNA-seq sequencing files were preprocessed using the cellRanger pipeline. For PDX samples, files were aligned against hg19 and mm10 genomes and only cells with a majority of human reads were retained for the analysis. For the MDA-MB-468 human cell line, sequences were aligned against the hg38 genome only. Cells with less than 3,000 […] for MDA-MB-468 or 2,500 for PDX or more than 8,000 detected genes, or more than 100,000 reads were filtered out, as well as cells with a percent of mitochondrial reads greater than 15% or a percentage of spike in greater than 5%. Normalization, dimensionality reduction and Louvain clustering was done using monocle3 (v0.2.2)^52 keeping the first 50 Principal Components (PC). Cell cycle was determined for each cell using Seurat (v3.1.5)^53. […] Differentially expressed genes were obtained by comparing raw gene expression values using edgeR GLM statistical model^54. […] For MDA-MB-468 samples, as the number of cells was high, a subset of 500 cells per cluster was subsampled from each cluster for the differential analysis and downstream steps. Intra-cluster correlation scores were calculated using Pearson's correlation score, with a random subsampling of n=500 cells per cluster.
# [2] = tested on: MDA-MB-468, BT20 and HCC38; test: Number of persister cells after EZH2i pre-treatment and 5-FU; assay type: cell-based, human; conditions: 10 days pre-treatment, then 5-FU for 21 days
# Experimental: Cell lines, culture conditions and drug treatments. […] All cell lines were cultured in a humidified 5% CO2 atmosphere at 37° C., and were tested as mycoplasma negative. […] Cells were treated with 5 μM of 5-FU (Sigma, Ref: […]) alone or in combination with KDM6A/Bi or EZH2i for indicated days. […] Cell proliferation, doubling time and IC50. MDA-MB-468, HCC38 and BT20 cells were stained with Trypan Blue (Invitrogen, Ref: T10282) exclusion test, and counted using a Countess automated cell counter (Invitrogen, Ref: C10228) at indicated time of treatment (FIG. 4a and Extended FIG. 8a/d/f).
# H3K27me3, EZH2 = target: T1, H3K27me3, EZH2 (Homo sapiens, UniProt Q15910); test: Western blotting of EZH2i-treated cells; assay type: cell-based; conditions: prior to chemotherapy treatment
# T1 construct: endogenous in cells; host or cells: MDA-MB-468, HCC38 or BT20
# T1 sequence (Q15910 whole entry): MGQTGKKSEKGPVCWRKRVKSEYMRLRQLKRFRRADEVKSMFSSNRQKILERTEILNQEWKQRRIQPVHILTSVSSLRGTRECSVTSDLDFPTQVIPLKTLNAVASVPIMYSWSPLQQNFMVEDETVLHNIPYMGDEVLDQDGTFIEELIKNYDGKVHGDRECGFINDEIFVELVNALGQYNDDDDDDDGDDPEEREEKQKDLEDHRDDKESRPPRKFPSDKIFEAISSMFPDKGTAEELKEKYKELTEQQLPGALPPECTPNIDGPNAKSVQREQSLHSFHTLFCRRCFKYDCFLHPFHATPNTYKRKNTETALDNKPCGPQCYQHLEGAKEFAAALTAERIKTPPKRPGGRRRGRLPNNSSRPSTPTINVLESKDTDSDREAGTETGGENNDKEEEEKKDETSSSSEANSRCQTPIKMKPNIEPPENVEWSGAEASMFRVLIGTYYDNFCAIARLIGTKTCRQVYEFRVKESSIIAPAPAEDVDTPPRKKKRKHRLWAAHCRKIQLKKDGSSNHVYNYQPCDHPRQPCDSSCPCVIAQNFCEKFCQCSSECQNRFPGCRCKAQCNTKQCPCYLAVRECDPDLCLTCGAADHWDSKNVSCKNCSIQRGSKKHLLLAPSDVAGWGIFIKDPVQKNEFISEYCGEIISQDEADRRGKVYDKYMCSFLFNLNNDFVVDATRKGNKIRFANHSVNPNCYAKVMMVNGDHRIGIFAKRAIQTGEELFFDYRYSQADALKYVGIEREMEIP
# T1 sequence (O75530 whole entry partner): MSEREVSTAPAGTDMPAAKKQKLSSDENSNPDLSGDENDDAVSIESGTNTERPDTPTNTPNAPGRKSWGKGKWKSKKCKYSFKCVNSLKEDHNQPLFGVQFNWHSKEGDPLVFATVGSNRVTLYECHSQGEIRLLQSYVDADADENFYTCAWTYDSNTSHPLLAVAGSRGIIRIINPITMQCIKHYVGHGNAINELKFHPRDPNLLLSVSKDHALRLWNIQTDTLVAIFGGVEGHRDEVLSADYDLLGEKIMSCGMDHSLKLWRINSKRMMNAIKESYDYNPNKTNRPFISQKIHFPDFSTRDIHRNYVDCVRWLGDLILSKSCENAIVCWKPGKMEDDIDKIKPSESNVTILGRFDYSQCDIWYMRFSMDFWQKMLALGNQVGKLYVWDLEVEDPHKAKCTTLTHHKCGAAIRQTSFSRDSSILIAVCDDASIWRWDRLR
# T1 sequence (Q15022 whole entry partner): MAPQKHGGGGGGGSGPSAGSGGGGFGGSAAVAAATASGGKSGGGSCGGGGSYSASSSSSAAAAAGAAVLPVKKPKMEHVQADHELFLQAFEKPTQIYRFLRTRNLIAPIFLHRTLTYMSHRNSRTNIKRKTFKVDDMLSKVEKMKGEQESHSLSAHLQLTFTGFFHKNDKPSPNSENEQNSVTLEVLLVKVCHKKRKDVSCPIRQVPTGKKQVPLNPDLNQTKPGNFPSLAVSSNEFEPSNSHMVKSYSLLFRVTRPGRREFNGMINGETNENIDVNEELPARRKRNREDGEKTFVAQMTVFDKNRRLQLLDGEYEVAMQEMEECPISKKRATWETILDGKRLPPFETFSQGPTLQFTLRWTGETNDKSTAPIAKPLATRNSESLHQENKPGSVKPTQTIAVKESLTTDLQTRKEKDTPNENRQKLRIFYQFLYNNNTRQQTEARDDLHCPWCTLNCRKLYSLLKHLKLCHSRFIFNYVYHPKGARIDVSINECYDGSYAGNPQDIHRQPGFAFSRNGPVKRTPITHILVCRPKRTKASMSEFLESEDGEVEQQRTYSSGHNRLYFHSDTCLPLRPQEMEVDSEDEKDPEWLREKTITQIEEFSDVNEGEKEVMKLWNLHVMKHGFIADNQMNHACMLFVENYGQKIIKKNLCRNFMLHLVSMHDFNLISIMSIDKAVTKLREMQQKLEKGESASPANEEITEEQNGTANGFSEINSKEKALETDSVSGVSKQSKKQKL
# Experimental: Western blotting. In Extended FIG. 8b/e/g, DMSO- and EZH2i-treated cells were lysed at 95° C. for 10 minutes in Laemmli buffer (50 mM Tris-HCl [pH 6.8], 2% SDS, 5% glycerol, 2 mM DTT, 2.5 mM EDTA, 2.5 mM EGTA, 4 mM Sodium Orthovanadate, 20 mM Sodium Fluoride, protease inhibitors, phosphatase inhibitors) and proteins concentrations were measured using a Pierce BCA protein Assay Kit (Thermo Fisher Scientific, Ref: 23225/23227). 10 μg of proteins were then separated on a 4-15% Mini-PROTEAN TGX Stain-Free Gel (Bio-Rad, Ref: 4568085) at 160V. After transfer, the membrane was blocked for 1 h at room temperature in PBS pH 7.4 containing 0.1% Tween-20 and 1% milk (Regilait). Incubation anti-H3K27me3 (Dilution: 1:2000, Cell Signaling, Ref: 9733) or EZH2 (Dilution: 1:2000, Cell Signaling, Ref: 5246) or Tubulin (Dilution: 1:1000, Thermo Fisher Scientific, Ref: 31460) primary antibodies diluted in PBS pH 7.4, 0.1% Tween-20 were performed at 4° C. overnight.
smiles,measurement,setting,value
CCCc1cc(C)[nH]c(=O)c1CNC(=O)c1cc(-c2ccc(N3CCN(C(C)C)CC3)nc2)cc2c1cnn2C(C)C [EZH2i-1],activation of persister genes with depletion of H3K27me3 upon 5-FU treatment,"[1]; 23/37 genes, no chemotherapy",62%
same,over-expression of persister genes independently of any H3K27me3 enrichment in untreated cells,"[1]; 78/131 genes, no chemotherapy",60%
same,"expression of candidate master TFs FOXQ1, FOSL1 and N 2RF2",[1]; EZH2i-1 treatment,re-expressed by EZH2i-1 treatment
same,Pearson correlation of expression fold-changes induced by EZH2i-1 with those induced by chemotherapy in persister cells,"[1]; early time points, D33 versus D0",0.71
same,Pearson correlation of expression fold-changes induced by EZH2i-1 with changes in resistant cells,[1]; resistant cells,0.31
same,number of persister cells,[2],increased the number of persister cells
same,EZH2 protein levels,"H3K27me3, EZH2",without perturbing EZH2 protein levels
same,H3K27me3 level,"H3K27me3, EZH2",erasing H3K27me3

# Source: patent US20260266837A1, “Methods for Cancer Recurrence Detection and Treatment Thereof” (Institut Curie, priority 2022, published 2026)
